Experimental data reported in patent publication US20110306579A1, “METHODS OF NEUROPROTECTION USING NEUROPROTECTIVE STEROIDS AND A VITAMIN D” (EMORY UNIVERSITY, priority 2009, published 2011).
Where a name gives a salt, the structure may show the parent alone.

Columns and labels:
[1] = Phase 1 and Phase 2 human trials; cited from earlier work
[2] = system: rat model of peripheral nerve injury; conditions: 100 IU/kg/day following nerve injury; cited from earlier work
[3] = system: 20-month old Fischer 344 rats; experiment: Cerebral edema analysis after cortical contusion brain injury; assay type: in vivo, rat; conditions: 4 mg/kg; for edema compared to subjects treated with vehicle: 24 hours post brain injury; for mean % difference edema: brain tissue 24 hours post brain injury, i.p. at 1 h, s.c. at 6 and 24 h
Procedure: The methodology used is described in VanLandingham et al., Neuropharmacology, 2006, 51, 1078-1085.
Sterile surgical procedures were used to prevent animal infection. Rats (20-month old Fischer 344 rats, which are the “human” equivalent of about 60 years old) were anesthetized and maintained on isoflurane and an equivalent amount of […] and O2 for 3 min prior to surgery. After brain contusion, O2 levels were doubled compared to […] and maintained through the reainder of the surgery procedure. A stereotaxic apparatus was used to stabilize the head in a horizontal position. Core body temperature was monitored and maintained at 37° C. using a Harvard homeothermic blanket (Harvard Apparatus, Holliston, Mass.). There was no direct measure used to deterct brain temperature. Blood oxygen and heart rate were maintained using a SurgiVet monitor (SurgiVet, Waukesha, Wis.) and maintained above 90% and 340 bpm respectively. A midline incision was made and the scalp retracted. A bilateral 6-mm craniotomy was performed with surgical drill centered at 3 mm rostral to bregma. The stainless steel impactor was positioned over the MFC at 3.0 mm A/P and 0.0 M/L. These coordinates represent the MFC as described by Paxinos and Watson (The Rat Brain in Stereotaxic Coordinates, Academic Press, San Diego, 1986). The cortical injury was induced using a pneumatically controlled device (Hoffman et al., J. Neurotrauma, 1994, 11, 417-431). Brain impact duration was 0.5 s. using a 5-mm impactor tip with a velocity set at 2.125 m/s and a cortical depth of 2 mm. Following the contusion, bleeding was halded and fascia and scalp were sutured shut. After surgery, animals were allowed to recover from anesthesia on a homeothermic heating blanket in a holding cage until awake. sham surgeries controlled for anesthesia and stress. All surgical procedures were the same, except that sham rates were not given a craniotomy or cortical injury. Previous studies using craniotomy as a control found no differences between shams with or without this procedure. (Goss et al., Pharmacol. Biochem. Behay. 2003, 76(2), 231-242).
These experimental solutions were then diluted 1:1 with sterile water for a final concentration of HBC of 22.5%.
All injections were done at the same time with brain harvesting at 24 h post-injury. Rats in each group were weightd prior to treatment to ensure proper dosage. The first injection at 1 h after surgery was given intraperitoneally to ensure rapid adsorption. All subsequent injections were made subcutaneously for gradual adsorption at 6 and 24 h. Injection times and neurosteroid doses were based on previous results of neurosteroid treatment (Roof et al., Twenty First Annual Meeting of the Society for Neuroscience, Miami Beach Fla., p. 191 and He et al., Exp. Neurol. 2004, 189, 404-412). The sterioids were dissolved in vehicle (22.5% 2-hydroxypropyl-b-cyclodextrin solution) at 4 mg/kg. The sham group received no treatment and injury control group received vehicle only.
At 24 h after traumatic brain injury flresh brains were extracted from the skull and the dorsal cerebrum was separated along the line of the lateral fissure. Four 3-mm coronal sections were cut rostral to caudal, placed in pre-weighed 1.5 mL tubes and re-weighed (wet weight). Tubes were then left uncapped and placed in a vacuum oven set at 60° C. with an atmospheric pressure of 0.3 for 48 h. Following tube recapping, the tissue samples were again weighed (dry weight). Cerebral edema (% water content) was determined as the difference in wet and dry weights divided by wet weight (Roof and Stein Restor. Neurol. Ncurosci., 1992, 4, 425-427). Edema measures are reflective of the difference inwater content between at the average of the two most rostral (injury region) segments and most caudal (occipital cortex) segments of the dorsal sections of the brain.

[4] = system: 20-month-old male Fischer 344 rats; experiment: Spontaneous locomotor activity (open field) after TBI; assay type: in vivo, rat; conditions: 72 hours after injury; normalized to sham
Description: The animals in this study were separated into two groups, vitamin D normal (D-normal) and vitamin D deficient (D-deficient). […] Animals in the D-deficient group were maintained on the diet for at least 21 days prior to surgery. […] For this same reason the null diet was not altered in any other way, and the rats assigned to the D-deficient group were maintained on it until they were killed for harvesting of brain tissue. Since vitamin D is activated by UVB light (280-315 nm wavelength), the overhead lights were modified to not produce radiation in this range.
Animals dehydrated due to blood loss were given 3 mL of lactated Ringer's solution subcutaneously within 6 hours of injury.
Animals were assigned to D-normal or D-deficicnt groups. […] The same assignment was followed for both 24-hour and 72-hour survival groups. […] All drug treatments were dissolved in vehicle, and injection volume was equally proportional to each animal's weight across all groups. The intact sham (SHAM) groups served to provide baseline data and therefore received no injury or injections.
In addition to molecular measures of inflammatory cytokines, the behavioral effects of the various treatments were examined. Since this study was limited to the short term effects on inflammation, only short-term Spontaneous Locomotor Activity was used.

[5] = system: E18 rat primary cortical neurons; experiment: Glutamate-induced excitotoxic cell death (LDH release and MTT reduction assays); assay type: cell-based
Description: Lactate dehydrogenase (LDH) release and 3-(4,5-dimethylthiazol-2-yl)-2,5-diphenyltetrazolium bromide (MTT) reduction assays were used to measure cell death. NeuroPureTM E18 primary rat cortical cells were commercially procured (Catalogue # N200200, Genlantis, San Diego, Calif., USA) as micro-surgically dissected regions from day 18 embryonic Sprague-Dawley rat brain. The tissues were processed for culturing according to manufacturer specifications. Briefly, enzymatic pre-treatment of the tissue was done prior to mechanical dissociation by incubating the tissues in sterile NeuroPapain enzyme solution at 30° C. for 30 minutes. Following incubation, the cells were centrifuged and transferred to fresh plating medium, where they were then dissociated into isolated neurons using a P-1000 pipettor with a sterile 1 ml plastic tip (0.8-1.0 mm diameter opening). The cells were again centrifuged and seeded in multi-well plates pre-coated with poly-D-lysine (0.15 ml/cm^2, 50 μg/ml) and maintained at 37° C. in a humidified 5% CO2 atmosphere. All experiments were performed after 9-10 days in culture. Twenty-four hours before glutamate exposure, cultures were pre-treated with both PROG (Cat. #P3972; Sigma Aldrich, St. Louis, Mo., USA) and VDH(Cat. #D1530; Sigma) separately or in combination with VDH at various concentrations. Stock solutions of PROG and VDH were prepared in dimethylsulfoxide (DMSO; Cat. #D2650; […] Glutamate was diluted in phosphate-buffered saline (PBS, pH 7.4). All reagents were filter sterilized before being added to cultures. At Day 11, cortical neurons in fresh media were separated into five treatment groups: (i) control; (ii) 24 hour treatment with 0.5 μM glutamate (Sribnick E A, et al., (2004) J Neurosci Res 76: 688-696); ([…]) with subsequent exposure to glutamate for 24 hours; (iv) 24 hour pre-treatment with VDH (1, 5, 10, 20, 40, 80, 100 nM) with subsequent exposure to glutamate for 24 hours; (v) 24 hour pre-treatment with different combinations of PROG and […]: 20 μM+VDH: 1, 5, 10, 20, 40, 80, 100 nM) with subsequent exposure to glutamate for 24 hours. Two widely accepted assays (LDH release and MTT reduction assay) for the measurement of cell viability were used. These assays are considered very reliable and reproducible with high predictive validity and are widely used in various pharmacological studies ([…], et al., (2002) Endocrinology 143: 205-212.). The LDH assay was performed as follows. […] LDH activity was measured using a Cytotoxicity Detection Kit (Roche Molecular Biochemicals, Indianapolis, Ind., USA) and quantitated by measuring absorbance at 490 nm. Data were normalized against the amount of LDH activity released from vehicle-treated control cultures receiving no glutamate. Neuronal death was also assessed by MTT [3-(4,5-dimethylthiazol-2-yl)-2,5-diphenyltetrazolium bromide] assay, which is based on the cleavage of the tetrazolium ring of the pale yellow MTT into dark blue formazan crystals by mitochondrial dehydrogenase enzyme in viable cells. These blue formazan crystals accumulate within the cells due to their impermeability to cell membrane, and are then solubilized by adding DMSO. The intensity of blue colored formazan solution is directly proportional to the number of surviving cells. Concentrations were determined by photometric analysis. Briefly, 10 μl of MTT were added per well and incubated at 37° C. for 4 hours until purple precipitate was visible. DMSO (50 μl) was added to solubilize the crystals and the absorbance was read at 570 nm.

MAPK (ERK1/2) = experiment: MAPK phosphorylation (p-ERK1/2 Western blot) in primary cortical neurons; assay type: cell-based, rat; conditions: VDH 100 nM, 30-minute treatment
Procedure: PROG and VDH were added to the primary cultures, as described above, for 30 minutes ([…], et al., (2002) Endocrinology 143: 205-212) and the cells were lysed using RIPA lysis buffer kit (sc-24948, Santa Cruz, Calif., USA). Protein was determined in cell lysates by bicinchoninic acid (BCA) protein assay (Cat. # 23225, Pierce, Rockford, Ill., USA). Cell lysates (40 μg protein each sample) were separated under reducing and denaturing conditions by 12.5% acrylamide Criterion gel (BioRad, Hercules, Calif., USA) at 200V for 1 hour and transferred to a polyvinylidene difluoride (PVDF) membrane at 100V for 30 minutes. The non-specific binding sites of the membrane were blocked with 5% non-fat dry milk in PBS-T (phosphate buffered saline containing 0.05% Tween-20). […] Membranes were then incubated in horseradish peroxidase (HRP)-conjugated secondary antibody (Goat anti-rabbit IgG; 074-1506, KPL, Gaithersburg, Md., USA). β-actin was probed as a loading control. Blots were developed using a chemiluminescent substrate (Pierce) for 5 minutes.

[6] = system: E18 rat primary cortical neurons; experiment: Morphological analysis of cortical cultures (phase contrast); assay type: cell-based; conditions: glutamate 0.5 μM for 24 h; data not shown
Description: Changes in the morphology of neurons treated with different drugs in various groups were observed using a phase-contrast microscope (Nikon). Primary cultures were mainly observed for neurite outgrowth, a hallmark feature of healthy cells, and the density of healthy cells in different groups.

[7] = biological target: T1, vitamin D binding protein (DBP) (Homo sapiens, UniProt P02774); conditions: cited from earlier work
T1 construct: host or cells: serum
T1 sequence (P02774 17-474): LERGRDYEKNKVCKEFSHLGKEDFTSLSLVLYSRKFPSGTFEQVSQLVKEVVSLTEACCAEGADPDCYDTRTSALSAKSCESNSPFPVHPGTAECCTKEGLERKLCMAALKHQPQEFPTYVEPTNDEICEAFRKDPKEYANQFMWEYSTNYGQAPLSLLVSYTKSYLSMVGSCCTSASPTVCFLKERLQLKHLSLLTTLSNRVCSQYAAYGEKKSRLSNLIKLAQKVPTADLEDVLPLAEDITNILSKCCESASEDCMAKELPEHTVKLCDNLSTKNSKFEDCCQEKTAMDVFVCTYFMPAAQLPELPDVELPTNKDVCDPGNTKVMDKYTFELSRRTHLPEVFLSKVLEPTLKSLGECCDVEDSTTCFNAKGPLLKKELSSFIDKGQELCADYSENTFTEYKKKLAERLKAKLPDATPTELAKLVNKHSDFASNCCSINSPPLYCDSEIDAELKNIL

For `CC(=O)[C@H]1CC[C@H]2[C@@H]3CC[C@H]4C[C@](C)(O)CC[C@]4(C)[C@H]3CC[C@]12C` [ganaxolone, 3a-hydroxy-3b-methyl-5a-pregnan-20-one], the tolerability [1] is listed as “well tolerated”.
In the case of `C=C1CC[C@H](O)C/C1=C/C=C1\CCC[C@]2(C)[C@@H]([C@H](C)/C=C/[C@H](C)C(C)C)CC[C@@H]12` [vitamin D2, ergocalciferol], the “axogenesis and axon diameter” value [2] is listed as “significantly increased axogenesis and axon diameter”.
With `CC(C)[C@H](N)C(=O)O[C@@H](C)[C@H]1CCC2C3CCC4=CC(=O)CC[C@]4(C)C3CC[C@@]21C` (stereo partly drawn) [Compound 57, 20-S-L-Valine-progesterone HCl salt] the “edema compared to subjects treated with vehicle” value [3] was “decrease in edema” and the “mean % difference edema” value [3] was 3.3%.
With `CC(=O)[C@H]1CCC2C3CCC4=C/C(=N/OC(=O)[C@@H](N)Cc5c[nH]c6ccccc56)CC[C@]4(C)C3CC[C@@]21C` (stereo partly drawn) [Compound 79, O-L-Tryptophan-C3-oxime-progesterone HCl salt] the “edema compared to subjects treated with vehicle” value [3] was “decrease in edema” and the “mean % difference edema” value [3] was 1.9%.
For `C=C1/C(=C\C=C2/CCC[C@]3(C)[C@@H]([C@H](C)CCCC(C)(C)O)CC[C@@H]23)C[C@@H](O)C[C@@H]1O` [VDH, 1,25-dihydroxyvitamin D3], the “spontaneous locomotor activity (total distance, resting, stereotypy, movement time)” value [4] was “little or no benefit”, the “best (most effective) concentration alone against glutamate-induced neuronal death” value ([5]; LDH and MTT assays) was 0.1 µM and the “shape of concentration response curve for neuroprotection against glutamate toxicity” value ([5]; VDH alone, or PROG 20 μM with VDH 1-100 nM) was “U-shaped”. The “neuroprotection against glutamate toxicity compared to vehicle-only group” value ([5]; VDH higher concentrations (1-10 μM)) was “did not prevent neuronal loss”, the “neuroprotection against glutamate toxicity compared to vehicle-only group” value ([5]; VDH lower concentrations (0.001-0.5 μM), P<0.001) was “significantly protective” and the “increase in p-ERK1/2 level compared to control group” value (MAPK (ERK1/2)) was 1.7 ×. The “morphology of neurons (neuronal processes, number of neurons) after glutamate” value [6] was “rescued neurons”.
For `C=C1CC[C@H](O)C/C1=C/C=C1\CCC[C@]2(C)[C@@H]([C@H](C)CCCC(C)(C)O)CC[C@@H]12` [Compound 25OHD3, 25-hydroxyvitamin D3], the “fraction of total in serum bound by DBP” value [7] is given as “about 88%”.
For `CC(=O)[C@H]1CCC2C3CCC4=C[C@@H](OC(=O)[C@@H](N)C(C)C)CC[C@]4(C)C3CC[C@@]21C` (stereo partly drawn) [Compound 31, 3β-L-Valine-progesterone-HCl], the “edema compared to subjects treated with vehicle” value [3] was “decrease in edema” and the “mean % difference edema” value [3] was 2.2%.
